Molecules are shown by their SMILES. Some results are limits rather than exact numbers.

Turning to `O=C(c1ccc(O)cc1)c1ccc(O)cc1O`, the melting point (in general, the temperature of the solid-liquid transition) lay in the range of 197 to 198 °C.
With `CC(=O)c1ccc(C2CC2(Cl)Cl)cc1` (configuration not stated) the figure was 35 °C.
With `c1ccc(-c2cc3c(ccc4nonc43)nn2)cc1` the figure was 201 to 203 °C.
Molecule `CNC(=N[N+](=O)[O-])NCc1cnc(Cl)s1` displayed a melting point of 177 °C.
`ClC(C(Cl)(Cl)Cl)C(Cl)(Cl)Cl` displayed a melting point of 11 °C.
For the molecule `Cc1cn(C2CC(F)C(CO)O2)c(=O)[nH]c1=O` (configuration not stated), the melting point is 177 °C.
The molecule `CCOC(=O)c1cc2cc([N+](=O)[O-])ccc2o1` displayed a melting point of 150 to 155 °C.
With `CC(=O)CO` the figure was -17 °C; with `CC(C)COC(=O)CCCCC(=O)OCC(C)C`, -20 °C.
`CCCCCCCC(C)=O` gave a melting point of -7.5 °C.
`CC(=O)OC1CCC2(C)C(CCC3C2CCC2(C)C3CCC(=O)C2(C)OC(C)=O)C1` (configuration not stated) yielded a melting point of 195 to 207 °C.
As to `COC(=O)c1sccc1NC(=O)CBr`, the melting point lay within 91 to 94 °C.
As for `Nc1ccc(N=Nc2ccc(N=Nc3ccc(N)cc3)cc2)cc1`, the melting point is 247 °C.
`O=C(Cl)c1csc2ccc(Br)cc12` came in with a melting point of 125 to 126 °C.
As for `CC(C)(C)c1ccc(Oc2ccc([N+](=O)[O-])cc2C=O)cc1`, the melting point is 134 to 136 °C.
The molecule `O=c1c(Cl)c(Cl)cnn1Cc1c(Cl)cccc1Cl` came in with a melting point of 158 to 160 °C.
With `O=c1cc[nH]c2c1cnn2-c1ccccc1` the figure was 166 to 168 °C; with `CC(=CCNc1ncnc2nc[nH]c12)CO`, 208 °C.
`Oc1ccc(Cl)cc1C1CCCCC1` had a melting point of 59 to 60 °C.
`COc1cc(C2c3cc4c(c(O)c3CC3COC(=O)C32)OCO4)cc(OC)c1OC` (configuration not stated) returned a melting point of 234 °C.
`CSC(=Nc1nnc(-c2ccc([N+](=O)[O-])cc2)s1)SC` displayed a melting point of over 250 °C.
For `Nc1c2c(nc3ccccc13)CCCC2O` (configuration not stated), the melting point was determined as 245 °C.
For the molecule `COc1cc(N)c(C(C)=O)cc1OC`, the melting point is 106 °C.
With `CCCCC(CC)CO[N+](=O)[O-]` (configuration not stated) the figure was 75 °C.
With `CC(=O)C1CCC2C3CCC4CC(N)CCC4(C)C3CCC12C` (configuration not stated) the figure was 126 °C; with `O=C(Nc1ccc(Cl)cc1)c1cc(Cl)cc(Cl)c1O`, 142 °C; with `O=C(O)c1ccc(O)c([N+](=O)[O-])c1`, 230 °C.
The molecule `O=C1OS(=O)(=O)c2c(Br)c(Br)c(Br)c(Br)c21` returned a melting point of 215 to 220 °C.
With `O=C(Nc1ccccc1)C(=O)Nc1ccccc1` the figure was 254 °C; with `NC(=O)C1CC1(Cl)Cl` (configuration not stated), 148 to 149 °C; with `O=[N+]([O-])c1cc(C(F)(F)F)cc([N+](=O)[O-])c1O`, 47 to 48 °C.
With `CC12CCC3C(CCC4CC=CCC43C)C1CCC2=O` (configuration not stated), the melting point worked out at 104 °C.
As for `OCCCCC#CC#CCCCCO`, the melting point turned out to be 50 °C.
On to `Oc1c(Br)c(Br)c(O)c(Br)c1Br`, for which the melting point was in the range of 255 to 260 °C.
In turn, `CCOC(=O)C(/C=C1\C(=O)C2(C)CCC1C2(C)C)(/C=C1\C(=O)C2(C)CCC1C2(C)C)CC(C)C` (configuration not stated) showed a melting point of 156 °C.
The molecule `CCCCC(=O)c1ccc2c(c1)OCCOCCOc1cc(C(=O)CCCC)ccc1OCCOCCO2` gave a melting point of 117 to 133 °C.
`CC(=O)Oc1cccc(N=[N+]([O-])c2cccc(OC(C)=O)c2)c1` displayed a melting point of 102 °C.
On to `CC(C)(O)CCc1ccccc1`, for which the melting point was found to be 24.5 °C.
The molecule `N#CC1=C(N)Oc2c(c(C(F)(F)F)nn2-c2ccccc2)C1c1ccc(O)cc1` (configuration not stated) had a melting point of 218 °C.
Consider `Nc1c(OC2C=CC(N3CCCCCC3=O)=CC2)cc(O)c2c1C(=O)c1ccccc1C2=O` (configuration not stated), for which the melting point came out at 164 °C.
With `Cn1ncc2c(NCCN)ncnc21` the figure was 297 °C; with `BrC1CCC(Br)C(Br)CCC(Br)C(Br)CCC1Br` (configuration not stated), 173 to 177 °C; with `COc1ccc2c(c1)[nH]c1c(C)nccc12`, 273 °C.
`O=C(CCl)C(Cl)(Cl)Cl` came in with a melting point of 65 °C.
The molecule `c1ccc(C2CCNCC2)cc1` showed a melting point of 60.5 °C.
Turning to `Cc1ccc(O)c(C(O)c2ccc(Br)cc2)c1` (configuration not stated), the melting point came to 107 °C.
With `Cc1ccc(S(=O)(=O)OCCCCCCOS(=O)(=O)c2ccc(C)cc2)cc1` the figure was 70.5 to 73 °C.
With `Cc1cccnc1NC(=O)C(C(F)(F)F)C(F)(F)F` the figure was 181 °C; with `O=C(NCO)NCO`, 126 °C.
On to `O=[N+]([O-])c1ccc2[nH]ncc2c1`, for which the melting point came out at 210 °C.
With `O=C1C(=C2C(=Cc3coc4ccccc4c3=O)C(=O)c3ccccc32)C(=O)c2ccccc21` the figure was 250 to 251 °C.
`COc1ccc(C=CC(=O)Nc2ccccc2C(=O)O)cc1OC` gave a melting point of 212 °C.
The molecule `CC(=O)Oc1ccccc1C(=O)OC(=O)c1ccccc1OC(C)=O` came in with a melting point of 83 °C.
`c1ccc(CCNc2cccc3cccnc23)cc1` showed a melting point of 57.6 °C.
The molecule `Clc1ccc2[nH]c(C(Cl)(Cl)Cl)nc2c1` returned a melting point of 223 to 229 °C.
`NC(=NO)c1c(Cl)cccc1Cl` yielded a melting point of 163 to 166 °C.
Regarding `COc1ccc(C=CC(=O)Oc2ccc(C=CC(=O)c3ccccc3)cc2)cc1`, the melting point was 158 °C.
For `Cc1nc(N(C)C)nc(OC(=O)N(C)C)c1C`, the melting point was 91.6 °C.
As for `Nc1ccc(S(=O)(=O)c2ccc(NCCO)cc2)cc1`, the melting point is 131 °C.
`CC(=O)Nc1ccc([N+](=O)[O-])cn1` yielded a melting point of 200 °C.
For the molecule `CCc1oc2ccccc2c1C(=O)c1ccc(O)cc1`, the melting point was determined as 124 °C.
As to `Cc1noc(C)c1C#N`, the melting point lay within 46 to 48 °C.
`CC#CCCCCCCCC`: the melting point is -30.1 °C.
Turning to `COc1cc(Cl)nc(N)n1`, the melting point fell in the range of 169 to 176 °C.
With `CCCCCCCCC(=O)Oc1ccc(/N=N/c2ccc(CCCC)cc2)cc1` the figure was 50 to 53 °C.
Take `Cc1ccc(CO)c(C)c1`: the melting point is 22 °C.
The molecule `CC(=O)Oc1ccccc1C(=O)Cl` had a melting point of 49 °C.
Molecule `Cc1cc(=O)n(-c2ccccc2)[nH]1` had a melting point of 128 °C.
`CSC(=O)c1cccc2nnsc12`: the melting point came to 133 °C.
Take `CC(=O)N[C@@H](CCCCN)C(=O)O`: the melting point fell in the range of 256 to 258 °C.
For `O=C1NC(=O)C(=NNc2ccc(Cl)cc2)C(=O)N1`, the melting point was 353 °C.
With `CC(F)(Cl)CCl` (configuration not stated), the melting point is -91.7 °C.
With `CCOC(=O)c1cnn(-c2ccc([N+](=O)[O-])cc2)c1N` the figure was 203 to 204 °C.
Molecule `CC1CCC(C(C)C)C(OC(=O)C#Cc2ccccc2)C1` (configuration not stated) yielded a melting point of 64 °C.
`NCc1ccc(-c2ccccc2)nc1` displayed a melting point of 38 to 40 °C.
As to `COC1=C(OC)C(C(COS(=O)(=O)c2ccc(C)cc2)OS(=O)(=O)c2ccc(C)cc2)OC1=O` (configuration not stated), the melting point lay within 144 to 146 °C.
`N#Cc1ccc(C(Cl)=Cc2cccc(C=C(Cl)c3ccc(C#N)cc3[N+](=O)[O-])c2)c([N+](=O)[O-])c1` yielded a melting point of 268 °C.
With `CCCOC(=O)C1=C(C)NC(C)=C(C(=O)OCCC)C1c1ccccc1` the figure was 119 °C; with `CC(=O)CCc1oc2ccc(Br)cc2c1-c1ccc(C)o1`, 79 °C.
Consider `OCc1ccncn1`, for which the melting point turned out to be 77 °C.
As to `COc1ccc(-n2c(SC)nc3nc(SC)n(C)c3c2=O)cc1`, the melting point lay in the range of 213 to 214 °C.
For the molecule `CCOC(=O)c1cn2ccccc2n1`, the melting point is 80 to 83 °C.
For `C/C(=N\NC(=O)c1ccccn1)c1c(O)c2ccccc2n(-c2ccccc2)c1=O`, the melting point lay in the range of 288 to 290 °C.
As to `Cc1c(N)cccc1O`, the melting point is 127 to 133 °C.
With `O=Cc1ccc(OC2CCOCC2)cc1` the figure was 95 to 96 °C; with `O=C(O)CCc1cc2c(cc1[N+](=O)[O-])CCC(=O)N2`, 258 °C.
`C=CCNC(N)=S` displayed a melting point of 78 °C.
Molecule `Cc1ccc(C)c(NN=C2C(=O)NN=C2C(F)(F)F)c1` showed a melting point of 189 °C.
Consider `Cc1cccc(C)c1NC(=O)C(C)N` (configuration not stated), for which the melting point was 256 °C.
For the molecule `C/C(=N/NC(N)=O)C(=O)Nc1ccc(Br)cc1`, the melting point fell in the range of 243 to 245 °C.
With `CC(C)(C)c1nn(-c2ccccc2)c(N)c1Cn1nnc2ccccc21`, the melting point was 124 °C.
With `C=CCOc1cccc(O)c1C(C)=O` the figure was 45.5 to 46.5 °C.
`Cc1cc2c(C#N)c3n(C)c4ccccc4n3c(=O)c2c(C)n1` showed a melting point of 321 °C.
`COc1cc(C(C)(C)C)c(O)c(C(C)(C)C)c1` returned a melting point of 105 °C.
The molecule `BrCCOc1cccc2c1OCCO2` displayed a melting point of 85 to 86 °C.
`Cc1cc(C)cc(C2Oc3c(Cl)c(Cl)c(Cl)c(Cl)c3O2)c1`: the melting point was found to be 160 °C.
In turn, `OCC(I)CC(F)(F)C(F)(F)C(F)(F)C(F)(F)C(F)(F)C(F)(F)C(F)(F)C(F)(F)F` (configuration not stated) showed a melting point of 54 to 55 °C.
In the case of `Cc1ccncc1/C=N/N(C)C`, the melting point is 50 °C.
With `Cc1cc(C)ncn1` the figure was 25 °C; with `Nc1cc(S(=O)(=O)O)ccc1Cl`, 300 °C.
With `CC1NC(C(=O)O)CS1` (mixture of isomers) the figure was 180 to 185 °C.
`Nc1c(C(=O)Oc2ccccc2)sc2sc(C(=O)Oc3ccccc3)c(N)c12` yielded a melting point of 165 °C.
For `CC(C)OC(=O)C1=C2c3ncccc3ON2C(Cl)C(Cl)C1Cl` (configuration not stated), the melting point amounted to 98 °C.
With `O=C(Cl)c1ccc2c(c1)OCO2` the figure was 80 to 81 °C; with `CCCCCCC(O)CC=CCCCCCCCC(=O)O` (configuration not stated), 5.5 °C.
Consider `CC(=O)OCC1OC(C#N)=CC(OC(C)=O)C1OC(C)=O` (configuration not stated), for which the melting point fell in the range of 112 to 115 °C.
For the molecule `CCCCCCOc1ccc(O)cc1`, the melting point came to 46 °C.

Values taken from a melting point compilation (Tetko et al.).
